Source: the supplement of paper PMC10307832

How the values were obtained:
Assay in all cases: relative viability (nuclei count vs DMSO), 5 days (fraction); higher = more cells survive
[1] = system: PC-3 [JPC-3]; settings: first compound 20 µM
Procedure, shortened: (§1)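 Cells from lung cancer lines were seeded into 1536-well plates and, one day later, dosed by pin tool. Treatments were either a single drug or a fixed dose of an anchor drug with five library-drug doses (not always all listed) in √10 steps. After 5 days, nuclei were stained in a one-step fixation (final 0.05% Triton X-100, 1% formaldehyde, 1 ug/ml Hoechst) and counted on 4× images, and relative viability is the treated-to-vehicle nuclei ratio, as the median of duplicate plates.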

[2] = system: NCI-H838
Procedure, shortened: as §1

[3] = system: NCI-H1915
Procedure, shortened: as §1

[4] = system: NCI-H441
Procedure, shortened: as §1

[5] = system: NCI-H661
Procedure, shortened: as §1

[6] = system: NCI-H322M
Procedure, shortened: as §1

[7] = system: NCI-H2342
Procedure, shortened: as §1

[8] = system: NCI-H647
Procedure, shortened: as §1

[9] = system: NCI-H520
Procedure, shortened: as §1

[10] = system: NCI-H1650
Procedure, shortened: as §1

[11] = system: NCI-H358
Procedure, shortened: as §1

[12] = system: NCI-H23
Procedure, shortened: as §1

With `Cc1csc(=NC2CCCCC2)n1/N=C/c1ccc(O)c(O)c1O` [MIM1] + Cc1cc(Nc2cc(N3CCN(C)CC3)nc(Sc3ccc(NC(=O)C4CC4)cc3)n2)n[nH]1 [Tozasertib] (partner 0.1 µM) the relative viability [1] was 0.574, the relative viability ([2]; first compound 0.2 µM) was 0.292 and the relative viability ([2]; first compound 0.6325 µM) was 0.307. It also gave a relative viability ([2]; first compound 2 µM) of 0.249, a relative viability ([2]; first compound 6.325 µM) of 0.236 and a relative viability ([2]; first compound 20 µM) of 0.236. The relative viability ([3]; first compound 0.2 µM) was 0.499, the relative viability ([3]; first compound 0.6325 µM) was 0.403 and the relative viability ([3]; first compound 2 µM) was 0.337. For the same compound, the relative viability ([3]; first compound 6.325 µM) was 0.305, the relative viability ([3]; first compound 20 µM) was 0.182 and the relative viability ([4]; first compound 0.2 µM) was 0.675. The relative viability ([4]; first compound 2 µM) was 0.599, the relative viability ([4]; first compound 6.325 µM) was 0.376 and the relative viability ([4]; first compound 20 µM) was 0.312. The relative viability ([5]; first compound 0.2 µM) was 0.35, the relative viability ([5]; first compound 0.6325 µM) was 0.367 and the relative viability ([5]; first compound 2 µM) was 0.361. For the same compound, the relative viability ([5]; first compound 6.325 µM) was 0.363, the relative viability ([5]; first compound 20 µM) was 0.285 and the relative viability ([6]; first compound 0.2 µM) was 0.497. For the same compound, the relative viability ([6]; first compound 0.6325 µM) was 0.456, the relative viability ([6]; first compound 2 µM) was 0.513 and the relative viability ([6]; first compound 6.325 µM) was 0.447. The relative viability ([6]; first compound 20 µM) was 0.26, the relative viability ([7]; first compound 0.2 µM) was 0.429 and the relative viability ([7]; first compound 0.6325 µM) was 0.58. It also gave a relative viability ([7]; first compound 2 µM) of 0.53, a relative viability ([7]; first compound 6.325 µM) of 0.508 and a relative viability ([7]; first compound 20 µM) of 0.575. It also gave a relative viability ([8]; first compound 0.2 µM) of 0.262, a relative viability ([8]; first compound 0.6325 µM) of 0.27 and a relative viability ([8]; first compound 6.325 µM) of 0.247. It also gave a relative viability ([8]; first compound 20 µM) of 0.11, a relative viability ([9]; first compound 0.2 µM) of 0.55 and a relative viability ([9]; first compound 0.6325 µM) of 0.419. The relative viability ([9]; first compound 2 µM) was 0.463, the relative viability ([9]; first compound 6.325 µM) was 0.428 and the relative viability ([9]; first compound 20 µM) was 0.375. The relative viability ([10]; first compound 0.2 µM) was 0.529, the relative viability ([10]; first compound 0.6325 µM) was 0.411 and the relative viability ([10]; first compound 2 µM) was 0.282. The relative viability ([10]; first compound 6.325 µM) was 0.322, the relative viability ([10]; first compound 20 µM) was 0.133 and the relative viability ([11]; first compound 0.2 µM) was 0.106. It also gave a relative viability ([11]; first compound 0.6325 µM) of 0.0936, a relative viability ([11]; first compound 2 µM) of 0.129 and a relative viability ([11]; first compound 6.325 µM) of 0.0878. It also gave a relative viability ([11]; first compound 20 µM) of 0.0838, a relative viability ([12]; first compound 0.2 µM) of 0.398 and a relative viability ([12]; first compound 2 µM) of 0.325. For the same compound, the relative viability ([12]; first compound 6.325 µM) was 0.175 and the relative viability ([12]; first compound 20 µM) was 0.15.
